System: 3T3-L1 adipocytes
Assay: myc-GLUT4-GFP translocation to the cell surface
Format: cell-based, mouse
Details: insulin 1 nM, 20 min
Procedure: FIG. 2, panels A-C show knockdown of CDP138 in 3T3-L1 adipocytes inhibits insulin-stimulated glucose transport (A) and myc-GLUT4-GFP translocation (B), but not endogenous GLUT4 movement to the periphery detected in TIRF zone (C). (A): Differentiated adipocytes at day 5 were transfected with siRNAs against mouse 5730419I09Rik or the scrambled siRNA (Scr) as described earlier (Jiang et al., 2003) for 60 hrs, then serum starved overnight. Cells were then treated with or without insulin (1 nM and 100 nM) for 30 min for the glucose uptake assay, or 15 min for immunoblotting of CDP138, pAkt, Akt and β-actin. Glucose transport data are presented as mean±SD of 4 independent experiments. *P<0.05 vs Scr Insulin (1 nM) group; **P<0.01 vs Scr Insulin (100 nM) group. (B): Day 5 adipocytes were transfected with siRNAs and myc-GLUT4-GFP for 60 hrs and then serum starved overnight. Cells were then treated with insulin (1 nM) for 20 min. Cell surface Myc-GLUT4-GFP was detected with anti-myc monoclonal Ab (9E10) and Alexa Fluor 568-labeled goat anti-mouse IgG in non-permeablized cells. The Myc signal and GFP signal were quantified as previously described (Jiang et al., 2002). Data presented are representative microscopic images and mean±SD of about 160 GFP-positive cells in each group from three independent experiments. **P<0.01 vs Scr Insulin (1 nM) group. […] GLUT4 was detected with a goat anti-GLUT4 Ab and Alexa Fluor 488-conjugated donkey anti-goat Ab in permeabilized cells. Top and middle panels show 100 nm TIRF zone and representative GLUT4 TIRFM images, respectively. Data are mean±SD of 3 independent experiments. **P<0.01 vs Scr Insulin groups.
GLUT4 translocation detection with wide field fluorescence and TIRF microscopy: Both wide field and TIRF microscopy were used to detect myc-GLUT4-GFP translocation to the cell surface as previously described (Jiang et al., 2002) and herein.
To test the effect of RNAi-induced gene specific knockdown of CDP138 or overexpression of CDP138 mutants on GLUT4 translocation, siRNAs or CDP138 constructs were transfected into adipocytes together with myc-GLUT4-GFP by electroporation as previously described (Jiang et al, 2003). […] Cells were washed with cold PBS, fixed with 4% formaldehyde and immunostained. Briefly, for siRNA study, the cell surface Myc-GLUT4-GFP was visualized with mouse anti-Myc Ab (9E10) and AlexaFluoro568-labeled goat anti-mouse secondary Ab (Invitrogen) in PBS containing 1% FBS. After washing, the coverslip were mounted with Prolong antifade reagent (Invitrogen, Eugene Oreg.). Fluorescence microscopy was carried as described below. Then, images were acquired with wide field microscopy as described below. For the study with overexpressed HAtagged CDP138 constructs, the cell surface Myc-GLUT4-GFP was visualized with rabbit anti-Myc Ab (Cell signaling, Inc) and AlexaFluoro568-labeled goat anti-rabbit secondary Ab (InVitrogen) in PBS containing 1% FBS. Cells were further permeabilized with PSB containing 0.5% Tween-20, and HA-tagged protein was detected with a mouse anti-HA epitope primary Ab followed by AlexaFluoro-350-labelled goat anti-mouse IgG. Insulin-induced myc-GLUT4 accumulation (AlexaFluoro-568 signal) within the evanescence excitation field (100 nm from dorsal membrane) in transfected adipocytes was measured with a Nikon Eclipse-Ti microscope equipped with a CoolSNAP HQ2 camera and laser scanning TIRF capacity. Total GLUT4-GFP signals and […] Alexa Fluoro-350 signals were acquired with wide field imaging to identify double-transfected cells. The ratio of myc-GLUT4 signal in the TIRF zone to the total Epi-GFP signal in wide field was used as a measure of GLUT4 translocation to the cell surface.
Image Analysis and Quantification: TIRF and wide field fluorescence microscopy were performed using a Nikon inverted microscope (Melville, N.Y.) with a cooled charge-coupled device camera. […]

insulin
increase in GLUT4 translocation (cell surface myc / total GFP): 3 fold
